Test results as given in the NIST ThermoML archive (doi:10.1016/j.fluid.2010.04.018).

Assay: xn = mol fraction of the nth substance listed
Conditions: Liquid, Vibrating tube method

C1CCOC1 [tetrahydrofuran] + O=C=O
Conditions	mass density [kg/m3]
298.15 K, x2 = 0.388	906.5
298.15 K, x2 = 0.47	910.1
298.15 K, x2 = 0.588	912.1
298.15 K, x2 = 0.703	906.9
298.15 K, x2 = 0.828	883.3
298.15 K, x2 = 0.941	819.3
298.15 K, x2 = 0.983	763.3
313.15 K, x2 = 0.301	879.8
313.15 K, x2 = 0.428	883.6
313.15 K, x2 = 0.542	883
313.15 K, x2 = 0.665	873.1
313.15 K, x2 = 0.788	842.6
313.15 K, x2 = 0.881	787.7
313.15 K, x2 = 0.921	737.7
313.15 K, x2 = 0.938	699.9
